For 24 molecules, EC50 and Maximum % activity results are on record in patent publication US10118916B2, “Modulators of cystic fibrosis transmembrane conductance regulator protein” (AbbVie S.à.r.l., priority 2016, dated 2018).

The structures appear in SMILES notation.

This assay deals with T1, F508delCFTR (Homo sapiens, UniProt P13569, DEL508-508).
T1 construct: expressed in transfected cells; host or cells: CFBE41o- (human lung derived epithelial cell line), doxycycline-inducible
The assay is described as follows: Cell Surface Expression-Horse Radish Peroxidase (CSE-HRP) assay. To be noted: CFBE41o-F508delCFTR-HRP cells; for EC50: F508delCFTR cell surface expression, luminescence, 18-24 hours at 33° C., highest concentration 20 μM; for Maximum % activity: maximum at any tested concentration, normalized to on-plate positive control (3 μM). The assay is classed as cell-based. Put shortly: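 CFBE41o- cells expressing doxycycline-induced (0.5 μg/mL, 72 h at 37 °C) F508delCFTR with HRP in the fourth extracellular loop; compounds 8 points, 3-fold from 20 μM, 18-24 h at 33 °C. Surface HRP measured by luminol luminescence, normalised to DMSO and 3 μM reference corrector; EC50 from variable-slope sigmoidal fit of triplicate plates.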

T1 sequence (P13569 with tags, fused parts or gaps DEL508-508): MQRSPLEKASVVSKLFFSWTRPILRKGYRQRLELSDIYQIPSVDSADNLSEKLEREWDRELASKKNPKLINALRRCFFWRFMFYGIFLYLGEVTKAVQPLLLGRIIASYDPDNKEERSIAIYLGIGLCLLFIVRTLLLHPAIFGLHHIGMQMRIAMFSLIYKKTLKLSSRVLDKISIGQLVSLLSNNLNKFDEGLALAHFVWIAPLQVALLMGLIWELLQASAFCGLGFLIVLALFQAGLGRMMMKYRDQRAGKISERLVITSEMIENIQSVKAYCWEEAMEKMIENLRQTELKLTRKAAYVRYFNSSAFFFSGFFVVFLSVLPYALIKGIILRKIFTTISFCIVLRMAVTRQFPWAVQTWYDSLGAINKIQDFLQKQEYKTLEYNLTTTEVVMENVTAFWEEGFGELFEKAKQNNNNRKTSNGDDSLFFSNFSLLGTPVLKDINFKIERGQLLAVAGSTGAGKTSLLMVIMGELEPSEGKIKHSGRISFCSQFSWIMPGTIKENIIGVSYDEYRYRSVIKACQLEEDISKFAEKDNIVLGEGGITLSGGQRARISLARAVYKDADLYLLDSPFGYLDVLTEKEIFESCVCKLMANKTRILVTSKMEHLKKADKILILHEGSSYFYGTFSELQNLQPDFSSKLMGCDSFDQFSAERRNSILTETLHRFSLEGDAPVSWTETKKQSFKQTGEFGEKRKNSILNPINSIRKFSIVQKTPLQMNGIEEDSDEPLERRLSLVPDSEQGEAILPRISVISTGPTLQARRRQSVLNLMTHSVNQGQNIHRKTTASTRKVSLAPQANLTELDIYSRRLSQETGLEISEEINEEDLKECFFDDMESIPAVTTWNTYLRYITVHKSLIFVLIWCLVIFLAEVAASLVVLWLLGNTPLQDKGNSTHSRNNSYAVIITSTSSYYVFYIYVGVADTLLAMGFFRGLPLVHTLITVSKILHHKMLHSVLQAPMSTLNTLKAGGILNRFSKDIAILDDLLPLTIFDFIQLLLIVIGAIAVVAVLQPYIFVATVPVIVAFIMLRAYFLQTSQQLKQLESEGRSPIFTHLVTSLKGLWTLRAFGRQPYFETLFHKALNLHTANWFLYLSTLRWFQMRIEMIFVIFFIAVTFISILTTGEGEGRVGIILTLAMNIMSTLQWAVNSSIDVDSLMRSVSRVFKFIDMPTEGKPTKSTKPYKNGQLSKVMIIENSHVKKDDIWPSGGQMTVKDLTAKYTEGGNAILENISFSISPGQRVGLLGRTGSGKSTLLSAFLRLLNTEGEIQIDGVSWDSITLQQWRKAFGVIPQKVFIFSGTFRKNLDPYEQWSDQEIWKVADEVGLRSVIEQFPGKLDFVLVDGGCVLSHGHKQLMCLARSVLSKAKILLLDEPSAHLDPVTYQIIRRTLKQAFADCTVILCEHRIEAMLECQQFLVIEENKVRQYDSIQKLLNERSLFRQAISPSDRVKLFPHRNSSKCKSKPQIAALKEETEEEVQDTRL

By EC50 is commonly meant the midpoint of the concentration-response curve. A lower EC50 goes with higher potency in that assay. `COc1ccc2c(c1)O[C@@H](c1cccc(C(=O)O)c1)C[C@H]2NC(=O)C(C)(C)c1ccc2c(c1)OCCO2` [Example 39, 3-{(2R,4R)-4-[2-(2,3-dihydro-1,4-benzodioxin-6-yl)-2-methylpropanamido]-7-methoxy-3,4-dihydro-2H-1-benzopyran-2-yl}benzoic acid]: the EC50 came to 870 nM and the Maximum % activity is 41.7%.
As to `COc1ccc2c(c1)O[C@@H](c1cccc(C(=O)O)c1)C[C@H]2NC(=O)C(C)(C)c1ccc(OC(F)(F)F)cc1` [Example 40, 3-[(2R,4R)-7-methoxy-4-{2-methyl-2-[4-(trifluoromethoxy)phenyl]propanamido}-3,4-dihydro-2H-1-benzopyran-2-yl]benzoic acid], a half-maximal effect (EC50) was put at 1700 nM and the Maximum % activity came out at 81.0%.
As to `COc1ccc2c(c1)O[C@@H](c1cccc(C(=O)O)c1)C[C@H]2NC(=O)C1(c2ccc(OC(F)(F)F)cc2)CC1` [Example 41, 3-[(2R,4R)-7-methoxy-4-({1-[4-(trifluoromethoxy)phenyl]cyclopropane-1-carbonyl}amino)-3,4-dihydro-2H-1-benzopyran-2-yl]benzoic acid], a half-maximal response (EC50) required 1670 nM and the Maximum % activity was determined as 62.2%.
The molecule `COc1ccc2c(c1)O[C@@H](c1cccc(C(=O)O)c1)C[C@H]2NC(=O)C1(c2ccc(Cl)cc2)CC1` [Example 42, 3-[(2R,4R)-4-{[1-(4-chlorophenyl)cyclopropane-1-carbonyl]amino}-7-methoxy-3,4-dihydro-2H-1-benzopyran-2-yl]benzoic acid] yielded an EC50 of 280 nM and a Maximum % activity of 28.3%.
In the case of `COc1ccc2c(c1)O[C@@H](c1cccc(C(=O)O)c1)C[C@H]2NC(=O)C1(c2ccc(Br)cc2)CC1` [Example 43, 3-[(2R,4R)-4-{[1-(4-bromophenyl)cyclopropane-1-carbonyl]amino}-7-methoxy-3,4-dihydro-2H-1-benzopyran-2-yl]benzoic acid], the EC50 is 280 nM and the Maximum % activity was 39.1%.
Consider `COc1ccc(C2(C(=O)N[C@@H]3C[C@H](c4cccc(C(=O)O)c4)Oc4cc(OC)ccc43)CC2)cc1` [Example 44, 3-[(2R,4R)-7-methoxy-4-{[1-(4-methoxyphenyl)cyclopropane-1-carbonyl]amino}-3,4-dihydro-2H-1-benzopyran-2-yl]benzoic acid], for which a half-maximal response (EC50) required 100 nM and the Maximum % activity turned out to be 35.3%.
In the same order, the values of `COc1ccc2c(c1)O[C@@H](c1cccc(C(=O)O)c1)C[C@H]2NC(=O)C(C)(C)Oc1ccc(Cl)cc1` [Example 45, 3-{(2R,4R)-4-[2-(4-chlorophenoxy)-2-methylpropanamido]-7-methoxy-3,4-dihydro-2H-1-benzopyran-2-yl}benzoic acid] are greater than 20000 nM and 15.3%.
As for `COc1cccc2c1[C@@](C)(C(=O)N[C@@H]1C[C@H](c3cccc(C(=O)O)c3)Oc3ccccc31)CC2` [Example 46, 3-[(2R,4R)-4-{[(1S)-7-methoxy-1-methyl-2,3-dihydro-1H-indene-1-carbonyl]amino}-3,4-dihydro-2H-1-benzopyran-2-yl]benzoic acid], the concentration giving a half-maximal response (EC50) was greater than 20000 nM and the Maximum % activity was determined as 1.1%.
Consider `COc1ccc2c(c1)[C@@](C)(C(=O)N[C@@H]1C[C@H](c3cccc(C(=O)O)c3)Oc3ccccc31)CC2` [Example 47, 3-[(2R,4R)-4-{[(1S)-6-methoxy-1-methyl-2,3-dihydro-1H-indene-1-carbonyl]amino}-3,4-dihydro-2H-1-benzopyran-2-yl]benzoic acid], for which a half-maximal effect (EC50) was put at 1060 nM and the Maximum % activity is recorded as 38.2%.
Take `COc1ccc2c(c1)[C@](C)(C(=O)N[C@@H]1C[C@H](c3cccc(C(=O)O)c3)Oc3ccccc31)CC2` [Example 48, 3-[(2R,4R)-4-{[(1R)-6-methoxy-1-methyl-2,3-dihydro-1H-indene-1-carbonyl]amino}-3,4-dihydro-2H-1-benzopyran-2-yl]benzoic acid]: the EC50 was greater than 20000 nM and the Maximum % activity is given as 4.5%.
Regarding `Cc1ccccc1C(C)(C)C(=O)N[C@@H]1C[C@H](c2cccc(C(=O)O)c2)Oc2ccccc21` [Example 49, 3-{(2R,4R)-4-[2-methyl-2-(2-methylphenyl)propanamido]-3,4-dihydro-2H-1-benzopyran-2-yl}benzoic acid], the concentration giving a half-maximal response (EC50) is greater than 20000 nM and the Maximum % activity is 3.5%.
Take `COc1cccc2c1[C@](C)(C(=O)N[C@@H]1C[C@H](c3cccc(C(=O)O)c3)Oc3ccccc31)CC2` [Example 50, 3-[(2R,4R)-4-{[(1R)-7-methoxy-1-methyl-2,3-dihydro-1H-indene-1-carbonyl]amino}-3,4-dihydro-2H-1-benzopyran-2-yl]benzoic acid]: the 50% effective concentration (EC50) is greater than 20000 nM and the Maximum % activity is 4.9%.
As to `CC(C)(C(=O)N[C@@H]1C[C@H](c2cccc(C(=O)O)c2)Oc2ccccc21)c1ccc(C(F)(F)F)cc1` [Example 51, 3-[(2R,4R)-4-{2-methyl-2-[4-(trifluoromethyl)phenyl]propanamido}-3,4-dihydro-2H-1-benzopyran-2-yl]benzoic acid], it took 2030 nM to reach a half-maximal effect (EC50) and the Maximum % activity was determined as 57.9%.
Molecule `CC(C)(C(=O)N[C@@H]1C[C@H](c2cccc(C(=O)O)c2)Oc2ccccc21)c1ccc(Cl)cc1Cl` [Example 52, 3-{(2R,4R)-4-[2-(2,4-dichlorophenyl)-2-methylpropanamido]-3,4-dihydro-2H-1-benzopyran-2-yl}benzoic acid] displayed an EC50 greater than 20000 nM and a Maximum % activity of 1.8%.
`C[C@@]1(C(=O)N[C@@H]2C[C@H](c3cccc(C(=O)O)c3)Oc3ccccc32)CCc2ccc(Cl)cc21` [Example 53, 3-[(2R,4R)-4-{[(1R)-6-chloro-1-methyl-2,3-dihydro-1H-indene-1-carbonyl]amino}-3,4-dihydro-2H-1-benzopyran-2-yl]benzoic acid] returned an EC50 greater than 20000 nM and a Maximum % activity of 1.2%.
Consider `C[C@]1(C(=O)N[C@@H]2C[C@H](c3cccc(C(=O)O)c3)Oc3ccccc32)CCc2ccc(Cl)cc21` [Example 54, 3-[(2R,4R)-4-{[(1S)-6-chloro-1-methyl-2,3-dihydro-1H-indene-1-carbonyl]amino}-3,4-dihydro-2H-1-benzopyran-2-yl]benzoic acid], for which the EC50 is greater than 20000 nM and the Maximum % activity is recorded as 10.4%.
`CC1(C(=O)N[C@@H]2C[C@H](c3cccc(C(=O)O)c3)Oc3ccccc32)CCc2cc(OC(F)(F)F)ccc21` (stereo partly drawn) [Example 55, 3-[(2R,4R)-4-{[1-methyl-5-(trifluoromethoxy)-2,3-dihydro-1H-indene-1-carbonyl]amino}-3,4-dihydro-2H-1-benzopyran-2-yl]benzoic acid] registered a half-maximal effective concentration (EC50) of 2710 nM and a Maximum % activity of 49.9%.
With `COc1ccc2c(c1)OCC2(C)C(=O)N[C@@H]1C[C@H](c2cccc(C(=O)O)c2)Oc2ccccc21` (stereo partly drawn) [Example 56, 3-{(2R,4R)-4-[(6-methoxy-3-methyl-2,3-dihydro-1-benzofuran-3-carbonyl)amino]-3,4-dihydro-2H-1-benzopyran-2-yl}benzoic acid], the EC50 stood at 1300 nM and the Maximum % activity is reported as 71.4%.
`COC(=O)c1cccc([C@H]2C[C@@H](NC(=O)C3(C)CCc4ccc(OC(F)(F)F)cc43)c3ccc(OC)cc3O2)c1` (stereo partly drawn) [Example 57, methyl 3-[(2R,4R)-7-methoxy-4-{[1-methyl-6-(trifluoromethoxy)-2,3-dihydro-1H-indene-1-carbonyl]amino}-3,4-dihydro-2H-1-benzopyran-2-yl]benzoate] had a concentration for a half-maximal effect (EC50) greater than 20000 nM and a Maximum % activity of 2.3%.
With `COc1ccc2c(c1)O[C@@H](c1cccc(C(=O)O)c1)C[C@H]2NC(=O)C1(C)CCc2ccc(OC(F)(F)F)cc21` (stereo partly drawn) [Example 58, 3-[(2R,4R)-7-methoxy-4-{[1-methyl-6-(trifluoromethoxy)-2,3-dihydro-1H-indene-1-carbonyl]amino}-3,4-dihydro-2H-1-benzopyran-2-yl]benzoic acid], it took 2220 nM to reach a half-maximal effect (EC50) and the Maximum % activity is 20.4%.
Consider `COC(=O)c1ccc([C@H]2C[C@@H](NC(=O)[C@@]3(C)CCc4cc(Cl)ccc4O3)c3ccccc3O2)cc1` [Example 59, methyl 4-[(2R,4R)-4-{[(2R)-6-chloro-2-methyl-3,4-dihydro-2H-1-benzopyran-2-carbonyl]amino}-3,4-dihydro-2H-1-benzopyran-2-yl]benzoate], for which the EC50 is greater than 20000 nM and the Maximum % activity is on record as 1.8%.
The molecule `C[C@]1(C(=O)N[C@@H]2C[C@H](c3ccc(C(=O)O)cc3)Oc3ccccc32)CCc2cc(Cl)ccc2O1` [Example 60, 4-[(2R,4R)-4-{[(2R)-6-chloro-2-methyl-3,4-dihydro-2H-1-benzopyran-2-carbonyl]amino}-3,4-dihydro-2H-1-benzopyran-2-yl]benzoic acid] came in with a concentration for a half-maximal effect (EC50) greater than 20000 nM and a Maximum % activity of 2.3%.
For `COC(=O)c1ccc([C@H]2C[C@@H](NC(=O)[C@]3(C)CCc4cc(Cl)ccc4O3)c3ccccc3O2)cc1` [Example 61, methyl 4-[(2R,4R)-4-{[(2S)-6-chloro-2-methyl-3,4-dihydro-2H-1-benzopyran-2-carbonyl]amino}-3,4-dihydro-2H-1-benzopyran-2-yl]benzoate], in that order: 5880 nM and 20.0%.
`C[C@@]1(C(=O)N[C@@H]2C[C@H](c3ccc(C(=O)O)cc3)Oc3ccccc32)CCc2cc(Cl)ccc2O1` [Example 62, 4-[(2R,4R)-4-{[(2S)-6-chloro-2-methyl-3,4-dihydro-2H-1-benzopyran-2-carbonyl]amino}-3,4-dihydro-2H-1-benzopyran-2-yl]benzoic acid] showed an EC50 of 2650 nM and a Maximum % activity of 22.6%.
